#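 Where inhibition never reached the appropriate level, the endpoint shown equals the highest concentration tested. Otherwise, values were interpolated linearly from a five-concentration, 48-hour dose response in 96-well plates. The concentration for full growth arrest is given as TGI.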
# How the values were obtained:
# Test in all cases: growth of human tumour cells (NCI), 48 h
# HCT-15 colon = system: HCT-15 colon
# 786-0 renal = system: 786-0 renal
# OVCAR-3 ovarian = system: OVCAR-3 ovarian
# M14 melanoma = system: M14 melanoma
# MCF7 breast = system: MCF7 breast
# NCI-H460 lung = system: NCI-H460 lung
# A549 NSCLC = system: A549 NSCLC
# K-562 leukemia = system: K-562 leukemia
# HCC-2998 colon = system: HCC-2998 colon
# A498 renal = system: A498 renal
# NCI-H226 lung = system: NCI-H226 lung
# TK-10 renal = system: TK-10 renal
# T-47D breast = system: T-47D breast
# HCT-116 colon = system: HCT-116 colon
# NCI/ADR-RES ovarian = system: NCI/ADR-RES ovarian
# RXF 393 renal = system: RXF 393 renal
# HS 578T breast = system: HS 578T breast
# HOP-62 NSCLC = system: HOP-62 NSCLC
# NCI-H23 lung = system: NCI-H23 lung
# NCI-H522 lung = system: NCI-H522 lung
# CCRF-CEM leukemia = system: CCRF-CEM leukemia
# ACHN renal = system: ACHN renal
# HT29 colon = system: HT29 colon
# SW-620 colon = system: SW-620 colon
# SF-539 CNS = system: SF-539 CNS
# SN12C renal = system: SN12C renal
# IGROV1 ovarian = system: IGROV1 ovarian
# MDA-N = system: MDA-N
# RPMI-8226 leukemia = system: RPMI-8226 leukemia
# MALME-3M melanoma = system: MALME-3M melanoma
# MDA-MB-435 = system: MDA-MB-435
# SF-268 CNS = system: SF-268 CNS
# DU-145 prostate = system: DU-145 prostate
# UACC-257 melanoma = system: UACC-257 melanoma
# HOP-92 NSCLC = system: HOP-92 NSCLC
# MOLT-4 leukemia = system: MOLT-4 leukemia
# SR leukemia = system: SR leukemia
# LOX IMVI melanoma = system: LOX IMVI melanoma
# SK-MEL-5 melanoma = system: SK-MEL-5 melanoma
# EKVX NSCLC = system: EKVX NSCLC
# OVCAR-5 ovarian = system: OVCAR-5 ovarian
# OVCAR-8 ovarian = system: OVCAR-8 ovarian
# U251 CNS = system: U251 CNS
# PC-3 prostate = system: PC-3 prostate
# SF-295 CNS = system: SF-295 CNS
# SNB-19 CNS = system: SNB-19 CNS
# HL-60(TB) leukemia = system: HL-60(TB) leukemia
# SK-MEL-28 melanoma = system: SK-MEL-28 melanoma
# OVCAR-4 ovarian = system: OVCAR-4 ovarian
# SNB-75 CNS = system: SNB-75 CNS
# UO-31 renal = system: UO-31 renal
# COLO 205 colon = system: COLO 205 colon
# MDA-MB-231 breast = system: MDA-MB-231 breast
# SK-OV-3 ovarian = system: SK-OV-3 ovarian
# CAKI-1 renal = system: CAKI-1 renal
# SK-MEL-2 melanoma = system: SK-MEL-2 melanoma
# KM12 colon = system: KM12 colon
# UACC-62 melanoma = system: UACC-62 melanoma
# BT-549 breast = system: BT-549 breast
smiles,measurement,setting,value
CN(C)C1(C(=O)O)CC1,TGI,HCT-15 colon,> 100 µM
same,TGI,786-0 renal,> 100 µM
same,TGI,OVCAR-3 ovarian,> 100 µM
same,TGI,M14 melanoma,> 100 µM
same,TGI,MCF7 breast,> 100 µM
same,TGI,NCI-H460 lung,> 100 µM
same,TGI,A549 NSCLC,> 100 µM
same,TGI,K-562 leukemia,> 100 µM
same,TGI,HCC-2998 colon,> 100 µM
same,TGI,A498 renal,> 100 µM
same,TGI,NCI-H226 lung,> 100 µM
same,TGI,TK-10 renal,> 100 µM
same,TGI,T-47D breast,> 100 µM
same,TGI,HCT-116 colon,> 100 µM
same,TGI,NCI/ADR-RES ovarian,> 100 µM
same,TGI,RXF 393 renal,> 100 µM
same,TGI,HS 578T breast,> 100 µM
same,TGI,HOP-62 NSCLC,> 100 µM
same,TGI,NCI-H23 lung,> 100 µM
same,TGI,NCI-H522 lung,> 100 µM
same,TGI,CCRF-CEM leukemia,> 100 µM
same,TGI,ACHN renal,> 100 µM
same,TGI,HT29 colon,> 100 µM
same,TGI,SW-620 colon,> 100 µM
same,TGI,SF-539 CNS,> 100 µM
same,TGI,SN12C renal,> 100 µM
same,TGI,IGROV1 ovarian,> 100 µM
same,TGI,MDA-N,> 100 µM
same,TGI,RPMI-8226 leukemia,> 100 µM
same,TGI,MALME-3M melanoma,> 100 µM
same,TGI,MDA-MB-435,> 100 µM
same,TGI,SF-268 CNS,> 100 µM
same,TGI,DU-145 prostate,> 100 µM
same,TGI,UACC-257 melanoma,> 100 µM
same,TGI,HOP-92 NSCLC,> 100 µM
same,TGI,MOLT-4 leukemia,> 100 µM
same,TGI,SR leukemia,> 100 µM
same,TGI,LOX IMVI melanoma,> 100 µM
same,TGI,SK-MEL-5 melanoma,> 100 µM
same,TGI,EKVX NSCLC,> 100 µM
same,TGI,OVCAR-5 ovarian,> 100 µM
same,TGI,OVCAR-8 ovarian,> 100 µM
same,TGI,U251 CNS,> 100 µM
same,TGI,PC-3 prostate,> 100 µM
same,TGI,SF-295 CNS,> 100 µM
same,TGI,SNB-19 CNS,> 100 µM
same,TGI,HL-60(TB) leukemia,> 100 µM
same,TGI,SK-MEL-28 melanoma,> 100 µM
same,TGI,OVCAR-4 ovarian,> 100 µM
same,TGI,SNB-75 CNS,> 100 µM
COc1ccc(N2C(=O)C3c4[nH]c5ccccc5c4C4CCCCCCCC4C3C2=O)cc1 (stereo not drawn),TGI,HCT-15 colon,> 10 µM
same,TGI,OVCAR-3 ovarian,> 10 µM
same,TGI,M14 melanoma,> 10 µM
same,TGI,MCF7 breast,> 10 µM
same,TGI,NCI-H460 lung,> 10 µM
same,TGI,A549 NSCLC,> 10 µM
same,TGI,K-562 leukemia,> 10 µM
same,TGI,HCC-2998 colon,> 10 µM
same,TGI,A498 renal,> 10 µM
same,TGI,UO-31 renal,> 10 µM
same,TGI,NCI-H226 lung,> 10 µM
same,TGI,TK-10 renal,> 10 µM
same,TGI,T-47D breast,> 10 µM
same,TGI,HCT-116 colon,> 10 µM
same,TGI,NCI/ADR-RES ovarian,> 10 µM
same,TGI,RXF 393 renal,> 10 µM
same,TGI,HS 578T breast,> 10 µM
same,TGI,HOP-62 NSCLC,> 10 µM
same,TGI,NCI-H23 lung,> 10 µM
same,TGI,NCI-H522 lung,> 10 µM
same,TGI,CCRF-CEM leukemia,8.35 µM
same,TGI,ACHN renal,> 10 µM
same,TGI,HT29 colon,> 10 µM
same,TGI,SW-620 colon,> 10 µM
same,TGI,SF-539 CNS,> 10 µM
same,TGI,SN12C renal,> 10 µM
same,TGI,IGROV1 ovarian,> 10 µM
same,TGI,MDA-N,> 10 µM
same,TGI,RPMI-8226 leukemia,> 10 µM
same,TGI,MALME-3M melanoma,> 10 µM
same,TGI,MDA-MB-435,> 10 µM
same,TGI,SF-268 CNS,> 10 µM
same,TGI,DU-145 prostate,> 10 µM
same,TGI,COLO 205 colon,> 10 µM
same,TGI,MDA-MB-231 breast,> 10 µM
same,TGI,MOLT-4 leukemia,> 10 µM
same,TGI,SR leukemia,> 10 µM
same,TGI,SK-OV-3 ovarian,> 10 µM
same,TGI,CAKI-1 renal,> 10 µM
same,TGI,SK-MEL-2 melanoma,> 10 µM
same,TGI,SK-MEL-5 melanoma,> 10 µM
same,TGI,EKVX NSCLC,> 10 µM
same,TGI,OVCAR-5 ovarian,> 10 µM
same,TGI,KM12 colon,> 10 µM
same,TGI,OVCAR-8 ovarian,> 10 µM
same,TGI,U251 CNS,> 10 µM
same,TGI,UACC-62 melanoma,> 10 µM
same,TGI,PC-3 prostate,> 10 µM
same,TGI,SF-295 CNS,> 10 µM
same,TGI,SNB-19 CNS,> 10 µM
same,TGI,HL-60(TB) leukemia,> 10 µM
same,TGI,SK-MEL-28 melanoma,> 10 µM
same,TGI,OVCAR-4 ovarian,> 10 µM
same,TGI,SNB-75 CNS,> 10 µM
NCCCCC(N)C(=O)N1CCN(c2nc(N3CCCC3)c3nc(Cl)c(NCc4ccccc4)nc3n2)CC1 (stereo not drawn),TGI,HCT-15 colon,35.2 µM
same,TGI,786-0 renal,33.1 µM
same,TGI,OVCAR-3 ovarian,36.9 µM
same,TGI,M14 melanoma,33.9 µM
same,TGI,MCF7 breast,38.1 µM
same,TGI,NCI-H460 lung,34.4 µM
same,TGI,A549 NSCLC,37.3 µM
same,TGI,K-562 leukemia,47.2 µM
same,TGI,HCC-2998 colon,34.7 µM
same,TGI,UO-31 renal,32.9 µM
same,TGI,NCI-H226 lung,45.6 µM
same,TGI,TK-10 renal,35.6 µM
same,TGI,HCT-116 colon,32.1 µM
same,TGI,NCI/ADR-RES ovarian,> 100 µM
same,TGI,RXF 393 renal,34 µM
same,TGI,HS 578T breast,47.4 µM
same,TGI,HOP-62 NSCLC,29.3 µM
same,TGI,NCI-H23 lung,37.9 µM
same,TGI,NCI-H522 lung,42.1 µM
same,TGI,BT-549 breast,34.4 µM
same,TGI,CCRF-CEM leukemia,37.7 µM
same,TGI,ACHN renal,38.1 µM
same,TGI,HT29 colon,38 µM
same,TGI,SW-620 colon,47.7 µM
same,TGI,SF-539 CNS,37.6 µM
same,TGI,SN12C renal,34.3 µM
same,TGI,IGROV1 ovarian,33.9 µM
same,TGI,MDA-N,33.7 µM
same,TGI,RPMI-8226 leukemia,44.4 µM
same,TGI,MALME-3M melanoma,43.5 µM
same,TGI,MDA-MB-435,46.6 µM
same,TGI,SF-268 CNS,45.2 µM
same,TGI,DU-145 prostate,33.5 µM
same,TGI,UACC-257 melanoma,35.5 µM
same,TGI,HOP-92 NSCLC,25.8 µM
same,TGI,COLO 205 colon,33.1 µM
same,TGI,MDA-MB-231 breast,34.3 µM
same,TGI,MOLT-4 leukemia,50.6 µM
same,TGI,SR leukemia,44.9 µM
same,TGI,SK-OV-3 ovarian,37.4 µM
same,TGI,LOX IMVI melanoma,35.9 µM
same,TGI,CAKI-1 renal,91.8 µM
same,TGI,SK-MEL-2 melanoma,35.9 µM
same,TGI,SK-MEL-5 melanoma,34.1 µM
same,TGI,EKVX NSCLC,36 µM
same,TGI,OVCAR-5 ovarian,33.9 µM
same,TGI,KM12 colon,47.2 µM
same,TGI,OVCAR-8 ovarian,31.5 µM
same,TGI,U251 CNS,36.5 µM
same,TGI,UACC-62 melanoma,36.7 µM
same,TGI,PC-3 prostate,32.1 µM
same,TGI,SF-295 CNS,35.4 µM
same,TGI,SNB-19 CNS,33.2 µM
same,TGI,HL-60(TB) leukemia,36.1 µM
same,TGI,SK-MEL-28 melanoma,40.5 µM
same,TGI,OVCAR-4 ovarian,50.8 µM
same,TGI,SNB-75 CNS,32.9 µM
O=C1C=C(c2c(-c3ccccc3)[nH]c3ccccc23)C(=O)N1c1ccccc1,TGI,HCT-15 colon,23.8 µM
same,TGI,786-0 renal,21.1 µM
same,TGI,OVCAR-3 ovarian,15.8 µM
same,TGI,M14 melanoma,30.4 µM
same,TGI,NCI-H460 lung,35.3 µM
same,TGI,A549 NSCLC,46.4 µM
same,TGI,K-562 leukemia,29.9 µM
same,TGI,HCC-2998 colon,20.8 µM
same,TGI,A498 renal,23.1 µM
same,TGI,UO-31 renal,28.9 µM
same,TGI,NCI-H226 lung,68.5 µM
same,TGI,TK-10 renal,30.3 µM
same,TGI,HCT-116 colon,19.6 µM
same,TGI,NCI/ADR-RES ovarian,66.2 µM
same,TGI,RXF 393 renal,15.2 µM
same,TGI,HS 578T breast,52.8 µM
same,TGI,HOP-62 NSCLC,1.06 µM
same,TGI,NCI-H23 lung,38.6 µM
same,TGI,BT-549 breast,24.1 µM
same,TGI,CCRF-CEM leukemia,49.4 µM
same,TGI,ACHN renal,71.4 µM
same,TGI,HT29 colon,29.7 µM
same,TGI,SW-620 colon,18.4 µM
same,TGI,SF-539 CNS,39.2 µM
same,TGI,SN12C renal,22.5 µM
same,TGI,IGROV1 ovarian,51.4 µM
same,TGI,MDA-N,15.7 µM
same,TGI,RPMI-8226 leukemia,> 100 µM
same,TGI,MALME-3M melanoma,23.9 µM
same,TGI,MDA-MB-435,24.6 µM
same,TGI,SF-268 CNS,21.5 µM
same,TGI,DU-145 prostate,15.7 µM
same,TGI,UACC-257 melanoma,30.6 µM
same,TGI,HOP-92 NSCLC,30.6 µM
same,TGI,COLO 205 colon,24.5 µM
same,TGI,MDA-MB-231 breast,25.6 µM
same,TGI,MOLT-4 leukemia,> 100 µM
same,TGI,SK-OV-3 ovarian,> 100 µM
same,TGI,LOX IMVI melanoma,24 µM
same,TGI,CAKI-1 renal,25.7 µM
same,TGI,SK-MEL-2 melanoma,28.4 µM
same,TGI,SK-MEL-5 melanoma,20.9 µM
same,TGI,EKVX NSCLC,38.5 µM
same,TGI,OVCAR-5 ovarian,33.3 µM
same,TGI,OVCAR-8 ovarian,20.8 µM
same,TGI,U251 CNS,26.8 µM
same,TGI,UACC-62 melanoma,27.9 µM
same,TGI,PC-3 prostate,21.8 µM
same,TGI,SF-295 CNS,25.3 µM
same,TGI,SNB-19 CNS,66.1 µM
same,TGI,HL-60(TB) leukemia,24.1 µM
same,TGI,SK-MEL-28 melanoma,68.7 µM
